51 compounds from patent publication US20180110824A1, “Macrocyclic Modulators of the Ghrelin Receptor” (Ocera Therapeutics, Inc., priority 2016, published 2018) can be followed below.

Read-outs that look alike come from different tables or passages of the source. Where only a bound is given, the exact number is not on record here.

The target of this test is T1, human growth hormone secretagogue receptor (hGHS-R1a) (Homo sapiens, UniProt Q92847).
T1 construct: purchased PerkinElmer BioSignal #RBHGHSM; host or cells: HEK-293, stably transfected
Kind of test: Competitive radioligand binding assay (ghrelin receptor), [125I]-ghrelin displacement on GHS-R/HEK 293 membranes.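 For Binding Activity at the Human Ghrelin Receptor (Ki): symbols B 10-100 nM C 0.1-1 µM D 1-10 µM F above 1 µM G above 10 µM.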 The procedure: The competitive binding assay at the human growth hormone secretagogue receptor (hGHS-R1a) was carried out analogously to assays described in the literature.
Multiscreen Harvest plates-GF/C (Millipore, #MAHFC1H60) • 4. […] Bottom seal (Millipore, #MATAH0P00) • 7. […] Binding Buffer: 25 mM Hepes (pH 7.4), 1 mM CaCl2, 5 mM MgCl2, 2.5 mM EDTA, 0.4% BSA
Competition experiments were performed in a 300 μl filtration assay format. • 1. 220 μL of membranes diluted in binding buffer • 2. 40 μL of compound diluted in binding buffer • 3.
Compounds were provided frozen on dry ice at a stock concentration of 10 mM diluted in 100% DMSO and stored at −80° C. until the day of testing. On the test day, compounds were allowed to thaw at rt O/N and then diluted in assay buffer according to the desired test concentrations. Under these conditions, the maximal final DMSO concentration in the assay was 0.1%.
Plates were sealed with TopSeal-A, vortexed gently and incubated at rt for 30 min. The reaction was arrested by filtering samples through Multiscreen Harvest plates (pre-soaked in 0.5% polyethyleneimine) using a Tomtec Harvester, washed 9 times with 500 μL of cold 50 mM Tris-HCl (pH 7.4, 4° C.), and then plates were air-dried in a fumehood 30 min. A bottom seal was applied to the plates prior to the addition of 25 μL of MicroScint-0 to each well. […] Results were expressed as counts per minute (cpm).
Data were analyzed by GraphPad Prism (GraphPad Software, San Diego, Calif.) using […] non-linear regression analysis.
where total and non-specific binding represent the cpm obtained in the absence or presence of 1 μM ghrelin, respectively.
• 1. Binding performed on membranes prepared from HEK293 expressing the transfected, cloned human ghrelin receptor (hGHS-R1a). • 2. […] Ghrelin (unlabeled, 1 μM) was used to determine non-specific binding. • 4.

Setting [1] is: Table 3B, binding activity at the human ghrelin receptor, read-out: Ki.
[2] abbreviates: Binding activity at the human ghrelin receptor, [125I]-ghrelin displacement, read-out: Ki.
The mark [3] stands for this setting: [125I]-ghrelin displacement, GHS-R/HEK 293 membranes, class symbols, read-out: Binding Activity at the Human Ghrelin Receptor (Ki).

T1 sequence (Q92847 whole entry): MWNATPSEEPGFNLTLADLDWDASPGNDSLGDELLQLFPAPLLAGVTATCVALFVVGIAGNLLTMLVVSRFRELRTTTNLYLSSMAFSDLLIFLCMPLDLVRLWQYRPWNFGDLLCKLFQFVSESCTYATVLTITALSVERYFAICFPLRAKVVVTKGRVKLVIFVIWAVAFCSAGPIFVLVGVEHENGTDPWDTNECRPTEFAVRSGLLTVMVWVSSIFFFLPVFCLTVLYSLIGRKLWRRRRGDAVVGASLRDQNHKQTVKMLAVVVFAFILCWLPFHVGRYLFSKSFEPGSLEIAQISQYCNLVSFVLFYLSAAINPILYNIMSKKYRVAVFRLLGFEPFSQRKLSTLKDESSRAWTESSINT

As for `CC[C@H](C)[C@@H]1NCCOc2ccccc2[C@@H]2C[C@@H]2CNC(=O)[C@H](Cc2cccc(Cl)c2)NC(=O)C2(CCCC2)NC1=O` [compound 387], the Ki (usually the equilibrium dissociation constant of an inhibitor or competing ligand from its target) under setting [1] was 0.1 to 1 µM.
Take `O=C1NC2(CCCC2)C(=O)N[C@@H](Cc2ccccc2)C(=O)NC/C=C/c2ccccc2OCCN[C@H]1Cc1ccc(F)cc1` [compound 125]: the Ki under setting [2] was over 10 µM.
In the case of `CC[C@H](C)[C@@H]1NCCOc2cc(F)ccc2CCCNC(=O)[C@H](Cc2cccc(Cl)c2)NC(=O)C2(CCCC2)NC1=O` [compound 383], the Ki under setting [1] lay in the range of 0.1 to 1 µM.
Consider `CC(C)C[C@@H]1NCCOc2ccccc2/C=C/CNC(=O)[C@H](Cc2cscn2)NC(=O)C2(CCCC2)NC1=O` [compound 163], for which the Ki under setting [3] is over 10 µM.
Take `O=C(O)CC[C@@H]1NCCOc2ccccc2CCCNC(=O)[C@H](Cc2ccccc2)NC(=O)C2(CCCC2)NC1=O` [compound 104]: the Ki under setting [2] was over 10 µM.
In the case of `CC[C@H](C)[C@@H]1NCCc2ccccc2C=CCNC(=O)[C@@H](Cc2ccccc2)NC(=O)[C@@H](C)N(C)C1=O` [compound 187], the Ki under setting [3] was in the range of 0.1 to 1 µM.
Consider `CN1CC(=O)NC(Cc2ccccc2)C(=O)NCCCc2ccccc2OCCNCC1=O` (stereo not shown) [compound 80], for which the Ki under setting [2] was over 10 µM.
Same read-out and setting: the result for `CC(C)C[C@H]1NCCOc2ccccc2CCCNC(=O)[C@@H](Cc2ccccc2)NC(=O)C2(CCCC2)NC1=O` [compound 98] reads over 10 µM.
On to `C[C@@H]1C(=O)N[C@H](Cc2ccc(C#N)cc2)C(=O)NCCCc2ccccc2OCCN[C@@H](C2CC2)C(=O)N1C` [compound 321], for which, under setting [1], the inhibition constant Ki was in the range of 0.01 to 0.1 µM.
On to `O=C1NC2(CCCC2)C(=O)N[C@@H](Cc2cccc(Cl)c2)C(=O)NC/C=C/c2ccccc2OCCN[C@H]1Cc1ccc(O)cc1` [compound 301], for which, under setting [1], the Ki was in the range of 0.01 to 0.1 µM.
As for `CCC[C@@H]1NC(=O)C2(CCCC2)NC(=O)[C@H](CC(C)C)NCCOc2ccccc2/C=C/CNC1=O` [compound 48], the Ki under setting [2] was over 10 µM.
As for `CC[C@H](C)[C@@H]1NCCOc2ccccc2CC(C)CNC(=O)[C@H](Cc2cccc(Cl)c2)NC(=O)C2(CCCC2)NC1=O` (stereo partly shown) [compound 392], the Ki under setting [1] lay within 0.01 to 0.1 µM.
`CC[C@H](C)[C@@H]1NCCCNCCNC(=O)[C@H](Cc2cccc(Cl)c2)NC(=O)C2(CCCC2)NC1=O` [compound 390]: the inhibitory constant (Ki) under setting [1] was in the range of 0.1 to 1 µM.
Consider `CC(C)C[C@@H]1NCc2ccccc2Sc2ccccc2CNC(=O)[C@H](Cc2ccccc2)NC(=O)C2(CCCC2)NC1=O` [compound 108], for which the Ki under setting [2] was 1 to 10 µM.
For `NCCCC[C@@H]1NCCOc2ccccc2CCCNC(=O)[C@H](Cc2ccccc2)NC(=O)C2(CCCC2)NC1=O` [compound 103], the Ki under setting [2] is over 10 µM.
Still for that read-out and setting: the value for `CC(C)C[C@@H]1NCCOc2ccccc2CCCNC(=O)[C@H](C)NC(=O)C2(CCCC2)NC1=O` [compound 87] was over 10 µM.
Turning to `CC[C@H](C)[C@@H]1NCc2ccccc2CCCCCNC(=O)[C@H](Cc2cccc(Cl)c2)NC(=O)C2(CCCC2)NC1=O` [compound 362], under setting [1], the Ki lay in the range of 0.1 to 1 µM.
On the same count and under the same terms, the result for `C[C@@H]1C(=O)N[C@H](Cc2ccc(F)c(F)c2)C(=O)NCCCc2ccccc2OCCN[C@@H](C2CC2)C(=O)N1C` [compound 316] reads 0.01 to 0.1 µM; that for `CCC(C)C1NCCOc2ccccc2C=CCNC(=O)C(Cc2ccsc2)NC(=O)C2(CCCC2)NC1=O` (stereo not shown) [compound 333], 0.1 to 1 µM.
On to `CC(C)C[C@H]1NCCOc2ccccc2CCCNC(=O)[C@H](Cc2ccccc2)NC(=O)C2(CCCC2)NC1=O` [compound 96], for which the Ki under setting [2] was over 10 µM.
`C[C@@H]1C(=O)N[C@H](Cc2cccc(F)c2)C(=O)NCCCc2ccccc2OCCN[C@@H](C2CC2)C(=O)N1C` [compound 313]: the Ki under setting [1] is 0.01 to 0.1 µM.
`CCC[C@@H]1NCCOc2ccccc2CCCNC(=O)[C@@H](Cc2ccccc2)NC(=O)[C@H](CCC(=O)O)NC1=O` [compound 70]: under setting [2], the Ki was over 10 µM.
Regarding `CCCC[C@@H]1NCCOc2ccccc2CCCNC(=O)[C@H](Cc2ccccc2)NC(=O)C2(CCCC2)NC1=O` [compound 101], the Ki under setting [2] fell in the range of 0.1 to 1 µM.
Regarding `COC[C@@H]1NCCOc2ccccc2CCCNC(=O)[C@@H](Cc2ccc(F)cc2)NC(=O)[C@@H](C)N(C)C1=O` [compound 336], the inhibition constant (Ki) under setting [1] is 0.1 to 1 µM.
`CCC[C@@H]1NCCOc2ccccc2CCCNC(=O)[C@@H](Cc2ccccc2)NC(=O)[C@H](CCCCN)NC1=O` [compound 68]: under setting [2], the Ki was in the range of 1 to 10 µM.
For the compound `CCC[C@@H]1NCCOc2ccccc2CCCNC(=O)[C@@H](Cc2ccccc2)NC(=O)[C@@H](CCC(=O)O)NC1=O` [compound 71], under setting [2], the Ki is over 10 µM.
Take `CC(C)C[C@@H]1NCCOc2ccccc2/C=C/CNC(=O)[C@H](Cc2c[nH]cn2)NC(=O)C2(CCCC2)NC1=O` [444a]: the Ki (Table 3D, read-out: Ki) was over 10 µM.
Regarding `CCC[C@H]1NCCOc2ccccc2CCCNC(=O)[C@@H](Cc2ccccc2)NC(=O)CN(C)C1=O` [compound 55], the Ki under setting [2] fell in the range of 1 to 10 µM.
Still for that read-out and setting: the result for `CCC[C@@H]1NCCOc2ccccc2CCCNC(=O)[C@@H](Cc2ccccc2)NC(=O)CNC1=O` [compound 61] reads 0.1 to 1 µM.
In the case of `C[C@@H]1C(=O)N[C@H](Cc2ccc(F)cc2)C(=O)NCCCc2ccccc2OCCN[C@@H](CCN)C(=O)N1C` [compound 338], the Ki under setting [1] lay within 0.1 to 1 µM.
For the compound `CCC[C@@H]1NCCOc2ccccc2CCCNC(=O)[C@@H](Cc2ccccc2)NC(=O)[C@H]2CCCN2C1=O` [Compound 221], the inhibition constant (Ki) by setting is: (Table 3E, read-out: Ki) 0.1 to 1 µM; under setting [3], 0.1 to 1 µM.
For `CCC(C)C1NCCOCCCCCNC(=O)C(Cc2cccc(Cl)c2)NC(=O)C2(CCCC2)NC1=O` (stereo not shown) [compound 370], under setting [1], the inhibition constant Ki is 0.1 to 1 µM.
As for `CC[C@H](C)[C@@H]1NCCOc2ccccc2CCCNC(=O)[C@@H](Cc2ccccc2)NC(=O)[C@@H](C(C)C)N(C)C1=O` [compound 144], the Ki under setting [2] fell in the range of 0.1 to 1 µM.
For `CC(C)[C@@H]1NCCOc2ccccc2/C=C/CNC(=O)[C@H](Cc2ccccc2)NC(=O)C2(CCNCC2)NC1=O` [compound 211], the Ki under setting [3] is over 1 µM.
Consider `CC(C)C[C@@H]1NCCOc2ccccc2CCCNC(=O)[C@@H](Cc2ccccc2)NC(=O)[C@@H](C)N(C)C1=O` [compound 118], for which, under setting [2], the Ki was 0.01 to 0.1 µM.
Same read-out and setting: the result for `CN1CC(=O)N[C@H](Cc2ccccc2)C(=O)NCCCc2ccccc2OCCN[C@@H](CCC(=O)O)C1=O` [compound 73] reads over 10 µM.
Still for that read-out and setting: the result for `CC[C@@H]1NCCOc2ccccc2CCCNC(=O)[C@@H](Cc2ccccc2)NC(=O)[C@@H](C)N(C)C1=O` [compound 117] reads 0.01 to 0.1 µM; that for `O=C1NC/C=C/c2ccccc2OCCN[C@@H](C(c2ccccc2)c2ccccc2)C(=O)NC2(CCCC2)C(=O)N[C@H]1Cc1ccccc1` [compound 129], over 10 µM.
With `C[C@@H]1C(=O)N[C@H](Cc2ccsc2)C(=O)NCCCc2ccccc2OCCN[C@@H](C2CC2)C(=O)N1C` [compound 310], the Ki under setting [1] was 0.01 to 0.1 µM.
Take `CC[C@H](C)[C@@H]1NCCOc2ccc(Cl)cc2CCCNC(=O)[C@H](Cc2cccc(Cl)c2)NC(=O)C2(CCCC2)NC1=O` [compound 384]: the inhibitory constant (Ki) under setting [1] lay within 0.1 to 1 µM.
With `CC(C)C[C@@H]1NCCOc2ccccc2/C=C/CNC(=O)[C@H](Cc2cccc3ccccc23)NC(=O)C2(CCCC2)NC1=O` [compound 22], under setting [2], the inhibition constant Ki is 0.01 to 0.1 µM.
`CC[C@H](C)[C@@H]1NCCOc2ncccc2CCCNC(=O)[C@H](Cc2cccc(Cl)c2)NC(=O)C2(CCCC2)NC1=O` [compound 449]: the Ki (Table 3D, read-out: Ki) lay within 1 to 10 µM.
Take `C[C@@H]1C(=O)N[C@H](Cc2ccc(I)cc2)C(=O)NCCCc2ccccc2OCCN[C@@H](C2CC2)C(=O)N1C` [compound 320]: the Ki under setting [1] was in the range of 0.0001 to 0.01 µM.
In the case of `C[C@@H]1C(=O)N[C@H](Cc2cc(F)cc(F)c2)C(=O)NCCCc2ccccc2OCCN[C@@H](C2CC2)C(=O)N1C` [compound 317], under setting [1], the Ki lay within 0.01 to 0.1 µM.
For the compound `C[C@@H]1C(=O)N[C@H](Cc2ccccc2)C(=O)NCCCc2ccccc2OCCNC2(CC2)C(=O)N1C` [compound 121], the Ki under setting [2] was over 10 µM.
For `CCC(C)[C@@H]1NCCOc2ccccc2/C=C/CNC(=O)[C@H](Cc2ccc(F)c(F)c2)NC(=O)C2(CCCC2)NC1=O` (stereo partly shown) [331a], the Ki under setting [1] was 0.01 to 0.1 µM.
Turning to `CCC[C@@H]1NCCOc2ccccc2CCCNC(=O)[C@@H](Cc2ccccc2)NC(=O)C2(CCCC2)NC1=O` [compound 67], the Ki under setting [2] lay in the range of 0.1 to 1 µM.
With `CCC(C)C1NCCOc2ccccc2C=CCNC(=O)C(Cc2cccc(C(F)(F)F)c2)NC(=O)C2(CCCC2)NC1=O` (stereo not shown) [332a], the Ki under setting [1] lay in the range of 0.01 to 0.1 µM.
Regarding `CC[C@H](C)[C@@H]1NCCOc2ccccc2/C=C\CNC(=O)[C@H](Cc2cccc(Cl)c2)NC(=O)C2(CCCC2)NC1=O` [compound 380], under setting [1], the Ki was 0.1 to 1 µM.
For the compound `C[C@@H]1C(=O)N[C@H](Cc2ccc(Br)cc2)C(=O)NCCCc2ccccc2OCCN[C@@H](C2CC2)C(=O)N1C` [compound 319], the Ki under setting [1] is 0.0001 to 0.01 µM.
`CC[C@H](C)[C@@H]1NCCCCCCNC(=O)[C@H](Cc2cccc(Cl)c2)NC(=O)C2(CCCC2)NC1=O` [compound 365]: the Ki under setting [1] was in the range of 0.1 to 1 µM.
